Data from US12404289B2 (Gilead Sciences, Inc., priority 2020, dated 2025).
Where two headings read alike, the source gives them in different places.

How the values were obtained:
Type in all cases: cell-based
SARS-CoV-2 = SARS-CoV-2 antiviral assay (A549-hACE2, Nano luciferase); conditions: A549-hACE2 cells, SARS-CoV2-Nano, MOI 0.025, 48 h, Table 4, read-out: EC50 SARS CoV2
[1] = test system: Recombinant respiratory syncytial virus expressing the firefly luciferase protein (RSV-Fluc); experiment: microbe, parasite or virus in culture; conditions: Table 4
[2] = test system: Respiratory syncytial virus (RSV) strain A2; experiment: RSV antiviral assay (HEp-2, 96 well); conditions: Table 3
[3] = test system: Respiratory syncytial virus (RSV) strain A2; experiment: Hep-2 RSV2 384-well assay (EC50-HEP2-384); conditions: human respiratory syncytial virus, HEp-2, 96 h, HEp-2 cells, RSV A2, MOI=4, 4 days, Table 3
[4] = Severe acute respiratory syndrome coronavirus 2, 48 h
[5] = human respiratory syncytial virus, NHBE, 72 h, read-out: EC50 RSVFluc NHBE 96, NHBE cells, RSV-Fluc, MOI of 0.1, three days, 96 well
[6] = human respiratory syncytial virus, HEp-2, 96 h, read-out: EC50 RSV HEP2 96, HEp-2 cells, RSV A2, MOI=4, 4 days, 96 well
[7] = read-out: EC50 RSVFluc NHBE 96, NHBE cells, RSV-Fluc, MOI of 0.1, three days, 96 well
[8] = read-out: EC50 RSV HEP2 96, HEp-2 cells, RSV A2, MOI=4, 4 days, 96 well

**Q.** Which results are given for `CC(C)C(=O)O[C@H]1[C@@H](OC(=O)C(C)C)[C@](C#N)(c2ccc3c(N)ncnn23)O[C@@H]1COP(=O)(N[C@@H](C)C(=O)OC1CCC1)Oc1ccc(C2CC2)cc1` (some centres unmarked) [Example 52a]?
**A.** EC50 (SARS-CoV-2; [4]): 64.5 nM; EC50 [1, 5]: 20.8 nM; EC50 [2, 6]: 20.5 nM

**Q.** For `CC(=O)O[C@H]1[C@@H](OC(C)=O)[C@](C#N)(c2ccc3c(N)ncnn23)O[C@@H]1COP(=O)(N[C@@H](C)C(=O)OC1CC2(CCC2)C1)Oc1ccc(C(C)(C)C)cc1` (stereo partly drawn) [Example 80, Spiro[3.3]heptan-2-yl (2S)-2-[[(4-tert-butylphenoxy)-[[(2R,3R,4R,5R)-3,4-diacetoxy-5-(4-aminopyrrolo[2,1-f][1,2,4]triazin-7-yl)-5-cyano-tetrahydrofuran-2-yl]methoxy]phosphoryl]amino]propanoate], which EC50 (SARS-CoV-2) is on record?
**A.** 310 nM

**Q.** And the EC50 [1, 7]?
**A.** 16.5 nM

**Q.** And the EC50 [2, 6]?
**A.** 16.9 nM

**Q.** With `C[C@H](NP(=O)(OC[C@H]1O[C@@](C#N)(c2ccc3c(N)ncnn23)[C@H](O)[C@@H]1O)Oc1ccc(C(C)(C)C)cc1)C(=O)OCCC(C)(C)C` (stereo partly drawn) [Example 61, 3,3-dimethylbutyl (2S)-2-[[[(2R,3S,4R,5R)-5-(4-aminopyrrolo[2,1-f][1,2,4]triazin-7-yl)-5-cyano-3,4-dihydroxy-tetrahydrofuran-2-yl]methoxy-(4-tert-butylphenoxy)phosphoryl]amino]propanoate] as the compound, how does the EC50 [3] read?
**A.** 72.4 nM

**Q.** What about the EC50 [2, 6] of the same compound?
**A.** 36.7 nM

**Q.** `CCC(C)(C)COC(=O)[C@H](C)NP(=O)(OC[C@H]1O[C@@](C#N)(c2ccc3c(N)ncnn23)[C@H](OC(=O)C(C)C)[C@@H]1OC(=O)C(C)C)Oc1ccc(C(C)(C)C)cc1` (stereo partly drawn) [Example 126, (2R,3R,4R,5R)-2-(4-aminopyrrolo[2,1-f][1,2,4]triazin-7-yl)-5-((((4-(tert-butyl)phenoxy)(((S)-1-(2,2-dimethylbutoxy)-1-oxopropan-2-yl)amino)phosphoryl)oxy)methyl)-2-cyanotetrahydrofuran-3,4-diyl bis(2-methylpropanoate)] was tested. Which EC50 (SARS-CoV-2; [4]) did it give?
**A.** 77.4 nM

**Q.** What about the EC50 [3] of the same compound?
**A.** 116 nM

**Q.** And the EC50 [2, 6]?
**A.** 17 nM

**Q.** `CC(C)COC(=O)[C@H](C)NP(=O)(OC[C@H]1O[C@@](C#N)(c2ccc3c(N)ncnn23)[C@H](OC(=O)C(C)C)[C@@H]1OC(=O)C(C)C)Oc1ccc(C(C)(C)C)cc1` (stereo partly drawn) [Example 122, (2R,3R,4R,5R)-2-(4-aminopyrrolo[2,1-f][1,2,4]triazin-7-yl)-5-((((4-(tert-butyl)phenoxy)(((S)-1-isobutoxy-1-oxopropan-2-yl)amino)phosphoryl)oxy)methyl)-2-cyanotetrahydrofuran-3,4-diyl bis(2-methylpropanoate)] was tested. Which EC50 (SARS-CoV-2; [4]) did it give?
**A.** 167 nM

**Q.** What about the EC50 [1, 5] of the same compound?
**A.** 8.73 nM

**Q.** What about the EC50 [2, 6] of the same compound?
**A.** 16.4 nM

**Q.** How did the EC50 (SARS-CoV-2) turn out when `C[C@H](NP(=O)(OC[C@H]1O[C@@](C#N)(c2ccc3c(N)ncnn23)[C@H](O)[C@@H]1O)Oc1ccc(C(C)(C)C)cc1)C(=O)OC1CC2(CCC2)C1` (stereo partly drawn) [Example 65, spiro[3.3]heptan-2-yl (2S)-2-[[[(2R,3S,4R,5R)-5-(4-aminopyrrolo[2,1-f][1,2,4]triazin-7-yl)-5-cyano-3,4-dihydroxy-tetrahydrofuran-2-yl]methoxy-(4-tert-butylphenoxy)phosphoryl]amino]propanoate] was run?
**A.** 265 nM

**Q.** And the EC50 [1, 7]?
**A.** 3.24 nM

**Q.** What about the EC50 [2, 6] of the same compound?
**A.** 336 nM

**Q.** What does the source list for `CC(C)C(=O)O[C@H]1[C@@H](OC(=O)C(C)C)[C@](C#N)(c2ccc3c(N)ncnn23)O[C@@H]1COP(=O)(N[C@@H](C)C(=O)OC1CCOCC1)Oc1ccc(C(C)(C)C)cc1` (stereo partly drawn) [Example 90, [(2R,3R,4R,5R)-5-(4-aminopyrrolo[2,1-f][1,2,4]triazin-7-yl)-2-[[(4-tert-butylphenoxy)-[[(1S)-1-methyl-2-oxo-2-tetrahydropyran-4-yloxy-ethyl]amino]phosphoryl]oxymethyl]-5-cyano-4-(2-methylpropanoyloxy)tetrahydrofuran-3-yl] 2-methylpropanoate]?
**A.** EC50 [3]: 124 nM; EC50 [2, 6]: 20.4 nM

**Q.** For `CC(C)C(=O)O[C@H]1[C@@H](OC(=O)C(C)C)[C@](C#N)(c2ccc3c(N)ncnn23)O[C@@H]1COP(=O)(N[C@@H](C)C(=O)OC1CCC1)Oc1ccc(C(C)(C)C)cc1` (single isomer, unassigned) [Example 50b], which EC50 (SARS-CoV-2) is on record?
**A.** 239 nM

**Q.** What about the EC50 [1, 7] of the same compound?
**A.** 5.36 nM

**Q.** And the EC50 [2, 8]?
**A.** 8.52 nM

**Q.** Which EC50 (SARS-CoV-2; [4]) does the source give for `CCC(CC)COC(=O)[C@H](C)NP(=O)(OC[C@H]1O[C@@](C#N)(c2ccc3c(N)ncnn23)[C@H](O)[C@@H]1O)Oc1ccc2ccccc2c1` (stereo partly drawn) [Intermediate S3, 2-ethylbutyl ((((2R,3S,4R,5R)-5-(4-aminopyrrolo[2,1-f][1,2,4]triazin-7-yl)-5-cyano-3,4-dihydroxytetrahydrofuran-2-yl)methoxy)(naphthalen-2-yloxy)phosphoryl)-L-alaninate] here?
**A.** 113 nM

**Q.** What about the EC50 [1, 5] of the same compound?
**A.** 5.51 nM

**Q.** How did the EC50 (SARS-CoV-2) turn out when `CC(C)C(=O)O[C@H]1[C@@H](OC(=O)C(C)C)[C@](C#N)(c2ccc3c(N)ncnn23)O[C@@H]1COP(=O)(N[C@@H](C)C(=O)OC1CCC1)Oc1ccc(C(C)(C)C)cc1` (single isomer, unassigned) [Example 50a] was run?
**A.** 38.8 nM

**Q.** What about the EC50 [1, 7] of the same compound?
**A.** 27.5 nM

**Q.** What about the EC50 [2, 8] of the same compound?
**A.** 21.3 nM

**Q.** Which results are given for `CC(C)C(=O)O[C@H]1[C@@H](OC(=O)C(C)C)[C@](C#N)(c2ccc3c(N)ncnn23)O[C@@H]1COP(=O)(N[C@@H](C)C(=O)OC1CCC1)Oc1cccc2ccccc12` (single isomer, unassigned) [Example 55a]?
**A.** EC50 (SARS-CoV-2; [4]): 104 nM; EC50 [1, 7]: 19.9 nM; EC50 [2, 6]: 7.09 nM

**Q.** With `COC(C)(C)COC(=O)[C@H](C)NP(=O)(OC[C@H]1O[C@@](C#N)(c2ccc3c(N)ncnn23)[C@H](OC(=O)C(C)C)[C@@H]1OC(=O)C(C)C)Oc1ccc(C(C)(C)C)cc1` (stereo partly drawn) [Example 116, (2R,3R,4R,5R)-2-(4-aminopyrrolo[2,1-f][1,2,4]triazin-7-yl)-5-((((4-(tert-butyl)phenoxy)(((S)-1-(2-methoxy-2-methylpropoxy)-1-oxopropan-2-yl)amino)phosphoryl)oxy)methyl)-2-cyanotetrahydrofuran-3,4-diyl bis(2-methylpropanoate)] as the compound, how does the EC50 (SARS-CoV-2; [4]) read?
**A.** 56 nM

**Q.** And the EC50 [1, 5]?
**A.** 25 nM

**Q.** What about the EC50 [2, 6] of the same compound?
**A.** 11.2 nM

**Q.** With `CCC(CC)COC(=O)[C@H](C)NP(=O)(OC[C@H]1O[C@@](C#N)(c2ccc3c(N)ncnn23)[C@H](O)[C@@H]1O)Oc1ccc2ccccc2c1` (single isomer, unassigned) [Intermediate S3-b] as the compound, how does the EC50 [3] read?
**A.** 68 nM

**Q.** And the EC50 [2, 8]?
**A.** 18.8 nM

**Q.** For `CC(=O)O[C@H]1[C@@H](OC(C)=O)[C@](C#N)(c2ccc3c(N)ncnn23)O[C@@H]1CO[P@@](=O)(N[C@@H](C)C(=O)O[C@H]1CCOC1)Oc1ccc(C(C)(C)C)cc1` [Example 37, (2R,3R,4R,5R)-2-(4-aminopyrrolo[2,1-f][1,2,4]triazin-7-yl)-5-((((4-(tert-butyl)phenoxy)(((S)-1-oxo-1-(((S)-tetrahydrofuran-3-yl)oxy)propan-2-yl)amino)phosphoryl)oxy)methyl)-2-cyanotetrahydrofuran-3,4-diyl Diacetate], which EC50 (SARS-CoV-2; [4]) is on record?
**A.** 282 nM

**Q.** And the EC50 [3]?
**A.** 187 nM

**Q.** Which results are given for `C[C@H](NP(=O)(OC[C@H]1O[C@@](C#N)(c2ccc3c(N)ncnn23)[C@H](O)[C@@H]1O)Oc1ccc(C(C)(C)C)cc1)C(=O)OCC1CCCCC1` (stereo partly drawn) [Example 156, Cyclohexylmethyl ((((2R,3S,4R,5R)-5-(4-aminopyrrolo[2,1-f][1,2,4]triazin-7-yl)-5-cyano-3,4-dihydroxytetrahydrofuran-2-yl)methoxy)(4-(tert-butyl)phenoxy)phosphoryl)-L-alaninate]?
**A.** EC50 (SARS-CoV-2; [4]): 363 nM; EC50 [3]: 195 nM

**Q.** Which results are given for `CCC(=O)O[C@H]1[C@@H](OC(=O)CC)[C@](C#N)(c2ccc3c(N)ncnn23)O[C@@H]1COP(=O)(N[C@@H](C)C(=O)OCCC(C)(C)CC)Oc1ccccc1` (stereo partly drawn) [Example 105a, (2R,3R,4R,5R)-2-(4-aminopyrrolo[2,1-f][1,2,4]triazin-7-yl)-2-cyano-5-((((((S)-1-((3,3-dimethylpentyl)oxy)-1-oxopropan-2-yl)amino)(phenoxy)phosphoryl)oxy)methyl)tetrahydrofuran-3,4-diyl Dipropionate]?
**A.** EC50 (SARS-CoV-2; [4]): 133 nM; EC50 [3]: 54.6 nM

**Q.** Which EC50 (SARS-CoV-2; [4]) does the source give for `CCOC(=O)[C@H](C)NP(=O)(OC[C@H]1O[C@@](C#N)(c2ccc3c(N)ncnn23)[C@H](OC(=O)C(C)C)[C@@H]1OC(=O)C(C)C)Oc1ccc(C23CC(C2)C3)cc1` (stereo partly drawn) [Example 43, (2R,3R,4R,5R)-2-(4-aminopyrrolo[2,1-f][1,2,4]triazin-7-yl)-5-((((4-(bicyclo[1.1.1]pentan-1-yl)phenoxy)(((S)-1-ethoxy-1-oxopropan-2-yl)amino)phosphoryl)oxy)methyl)-2-cyanotetrahydrofuran-3,4-diyl bis(2-methylpropanoate)] here?
**A.** 168 nM

**Q.** And the EC50 [3]?
**A.** 62.8 nM

**Q.** How did the EC50 (SARS-CoV-2; [4]) turn out when `CCC(=O)O[C@H]1[C@@H](OC(=O)CC)[C@](C#N)(c2ccc3c(N)ncnn23)O[C@@H]1COP(=O)(N[C@@H](C)C(=O)OCC(C)C)Oc1ccc(C(C)(C)C)cc1` (stereo partly drawn) [Example 138, (2R,3R,4R,5R)-2-(4-aminopyrrolo[2,1-f][1,2,4]triazin-7-yl)-5-((((4-(tert-butyl)phenoxy)(((S)-1-isobutoxy-1-oxopropan-2-yl)amino)phosphoryl)oxy)methyl)-2-cyanotetrahydrofuran-3,4-diyl Dipropionate] was run?
**A.** 342 nM

**Q.** And the EC50 [3]?
**A.** 36.6 nM

**Q.** What does the source list for `CCC(C)(C)CCOC(=O)[C@H](C)NP(=O)(OC[C@H]1O[C@@](C#N)(c2ccc3c(N)ncnn23)[C@H](O)[C@@H]1O)Oc1ccc(C(C)(C)C)cc1` (stereo partly drawn) [Example 154, 3,3-dimethylpentyl ((((2R,3S,4R,5R)-5-(4-aminopyrrolo[2,1-f][1,2,4]triazin-7-yl)-5-cyano-3,4-dihydroxytetrahydrofuran-2-yl)methoxy)(4-(tert-butyl)phenoxy)phosphoryl)-L-alaninate]?
**A.** EC50 (SARS-CoV-2; [4]): 330 nM; EC50 [3]: 105 nM
